Like-named read-outs stand apart in the source and are kept apart here.
What was measured:
[1] = test system: 786-0 (Renal cancer); assay: NCI-60 screen (SRB, 48 h)
[2] = test system: panel of approximately 60 cancer cell lines; assay: NCI-60 screen (SRB, 48 h), full panel
[3] = test system: SNB-75 (CNS cancer); assay: NCI-60 screen (SRB, 48 h); conditions: Homo sapiens
[4] = test system: NCI-H226 (NSC lung cancer); assay: NCI-60 screen (SRB, 48 h); conditions: Homo sapiens
[5] = test system: NCI-H322M (NSC lung cancer); assay: NCI-60 screen (SRB, 48 h); conditions: Homo sapiens
[6] = test system: A498 (Renal cancer); assay: NCI-60 screen (SRB, 48 h); conditions: Homo sapiens
[7] = test system: Colon Cancer subpanel; assay: NCI-60 screen, subpanel; conditions: Homo sapiens
[8] = test system: OVCAR-3 (Ovarian cancer); assay: cells; conditions: Homo sapiens
[9] = test system: NCI-H460 (NSC lung cancer); assay: NCI-60 screen (SRB, 48 h); conditions: Homo sapiens
[10] = test system: MDA-MB-31/ATCC (Breast cancer); assay: NCI-60 screen (SRB, 48 h); conditions: Homo sapiens
[11] = test system: LOX IMVI (Melanoma); assay: NCI-60 screen (SRB, 48 h); assay type: cell-based; conditions: Homo sapiens
[12] = test system: NCI-H522 (NSC lung cancer); assay: NCI-60 screen (SRB, 48 h); conditions: Homo sapiens
[13] = test system: Melanoma subpanel; assay: NCI-60 screen, subpanel; conditions: Homo sapiens
[14] = test system: KM12 (Colon cancer); assay: NCI-60 screen (SRB, 48 h); conditions: Homo sapiens
[15] = test system: NIH 3T3 (non-malignant mouse fibroblasts); assay: SRB cytotoxicity assay, 72 h; assay type: cell-based; conditions: Mus musculus, NIH3T3; NIH 3T3, 72 h, cut-off 30 µM; read-out: EC50
Method in brief: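 EC50 values reflect percent surviving cells versus untreated controls, read at 570 nm after SRB staining of TCA-fixed monolayers. Dosing spanned 0–30 µM over 72 h.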

[16] = test system: CNS cancer subpanel; assay: NCI-60 screen, subpanel; conditions: Homo sapiens
[17] = test system: MOLT-4 (Leukemia); assay: NCI-60 screen (SRB, 48 h); conditions: Homo sapiens
[18] = test system: OVCAR-4 (Ovarian cancer); assay: NCI-60 screen (SRB, 48 h); assay type: cell-based; conditions: Homo sapiens
[19] = test system: UACC-257 (Melanoma); assay: NCI-60 screen (SRB, 48 h); conditions: Homo sapiens
[20] = test system: HCC-2998 (Colon cancer); assay: NCI-60 screen (SRB, 48 h); conditions: Homo sapiens
[21] = test system: Leukemia subpanel; assay: cells; conditions: Homo sapiens
[22] = test system: Breast cancer subpanel; assay: NCI-60 screen, subpanel; conditions: Homo sapiens
[23] = test system: MDA-MB-468 (Breast cancer); assay: cells; conditions: Homo sapiens

Cc1ccc(S(=O)(=O)OC[C@@]2(C)CC[C@]3(C)CC[C@]4(C)C(=C3C2)C=C[C@@H]2[C@@]3(C)CCCNC(C)(C)[C@@H]3CC[C@]24C)cc1 [Compound 16]
Growth % of the Most Sensitive Cell Lines ([1]; 786-0, 1 dose 10 µM): −90.69% | GI50 ([1]; Homo sapiens, 786-0): 1.84 µM | IC (TGI) ([1]; Homo sapiens, 786-0, 48 h, read-out: TGI): 3.51 µM | Positive Cytostatic Effect (cell lines with percent growth 0 to 50 / total) ([2]; 1 dose 10 µM): 12/60 | Positive Cytotoxic Effect (cell lines with percent growth < 0 / total) ([2]; 1 dose 10 µM): 31/60 | number of cancer cell lines the compound was active against ([2]; 1 dose 10 µM): 40 cell lines | activity at 10 µM ([2]; Homo sapiens, 48 h, read-out: Mean Growth, %): -0.81% | activity at 10 µM ([2]; Homo sapiens, 48 h, read-out: Range of Growth, %): -99.2 to 104% | IC (TGI) ([2]; Homo sapiens, 48 h, read-out: TGI MG_MID60, average over all cell lines): 3.52 µM | GI50 ([2]; Homo sapiens, read-out: GI50 MG_MID60): 1.72 µM | GI50 ([2]; Homo sapiens, read-out: GI50 against all human tumor cell lines): < 3 µM | GI50 ([2]; Homo sapiens, read-out: GI50 against the most sensitive cell lines): 0.2 to 0.94 µM | GI50 ([3]; SNB-75): 1.61 µM | IC (TGI) ([3]; SNB-75, 48 h, read-out: TGI): 3.1 µM | CC50 ([3]; SNB-75, read-out: LC50): 5.97 µM | GI50 ([4]; NCI-H226): 1.66 µM | IC (TGI) ([4]; NCI-H226, 48 h, read-out: TGI): 3.47 µM | GI50 [5]: 1.62 µM | IC (TGI) ([5]; 48 h, read-out: TGI): 3.01 µM | CC50 ([5]; read-out: LC50): 5.62 µM | GI50 ([6]; A498): 1.71 µM | IC (TGI) ([6]; A498, 48 h, read-out: TGI): 3.13 µM | CC50 ([6]; A498, read-out: LC50): 5.74 µM | IC (TGI) ([7]; 48 h, read-out: TGI MG_MID): 3.3 µM | GI50 ([7]; read-out: GI50 MG_MID): 1.64 µM | CC50 ([7]; read-out: LC50 MG_MID): 6.94 µM | GI50 ([8]; OVCAR-3): 1.88 µM | IC (TGI) ([8]; OVCAR-3, 48 h, read-out: TGI): 3.56 µM | GI50 ([9]; NCI-H460): 1.85 µM | IC (TGI) ([9]; NCI-H460, 48 h, read-out: TGI): 3.5 µM | GI50 [10]: 1.98 µM | IC (TGI) ([10]; 48 h, read-out: TGI): 3.91 µM | IC (TGI) ([11]; 48 h): 3.02 µM | activity at 10 µM ([11]; 48 h, 1 dose 10 µM, read-out: Growth % of the Most Sensitive Cell Lines): -99.2% | GI50 ([11]; read-out: GI50): 1.63 µM | GI50 ([12]; NCI-H522): 1.7 µM | IC (TGI) ([12]; NCI-H522, 48 h, read-out: TGI): 3.36 µM | CC50 ([12]; NCI-H522, read-out: LC50): 6.64 µM | IC (TGI) ([13]; 48 h, read-out: TGI MG_MID): 3.36 µM | GI50 ([13]; read-out: GI50 MG_MID): 1.77 µM | CC50 ([13]; read-out: LC50 MG_MID): 6.16 µM | GI50 ([14]; KM12): 1.86 µM | IC (TGI) ([14]; KM12, 48 h, read-out: TGI): 3.57 µM | CC50 ([14]; KM12, read-out: LC50): 6.85 µM | EC50 [15]: 2.45 ± 0.1 µM | IC (TGI) ([16]; 48 h, read-out: TGI MG_MID): 3.4 µM | GI50 ([16]; read-out: GI50 MG_MID): 1.77 µM | CC50 ([16]; read-out: LC50 MG_MID): 6.49 µM | GI50 ([17]; MOLT-4): 1.84 µM | IC (TGI) ([17]; MOLT-4, 48 h, read-out: TGI): 4.16 µM | IC (TGI) ([18]; OVCAR-4, 48 h): 3.16 µM | GI50 ([18]; OVCAR-4, read-out: GI50): 1.66 µM | CC50 ([18]; OVCAR-4, read-out: LC50 (the source's name)): 6.02 µM | GI50 ([19]; UACC-257): 1.85 µM | IC (TGI) ([19]; UACC-257, 48 h, read-out: TGI): 3.68 µM | GI50 ([20]; HCC 2998): 1.58 µM | IC (TGI) ([20]; HCC 2998, 48 h, read-out: TGI): 3.18 µM | IC (TGI) ([21]; 48 h, read-out: TGI MG_MID): 4.72 µM | GI50 ([21]; read-out: GI50 MG_MID): 1.61 µM | CC50 ([21]; read-out: LC50 MG_MID): > 100 µM | IC (TGI) ([22]; 48 h, read-out: TGI MG_MID): 3.5 µM | GI50 ([22]; read-out: GI50 MG_MID): 1.67 µM | CC50 ([22]; read-out: LC50 MG_MID): 7.57 µM | GI50 ([23]; MDA-MB-468): 1.59 µM | IC (TGI) ([23]; MDA-MB-468, 48 h, read-out: TGI): 3.22 µM | CC50 ([23]; MDA-MB-468, read-out: LC50): 6.51 µM

Source: paper PMC7914897, “Cytotoxic Potential of a-Azepano- and 3-Amino-3,4-SeCo-Triterpenoids” (International Journal of Molecular Sciences, 2021)
